For test [1], the target named is 5-hydroxytryptamine receptor 2B (Homo sapiens, UniProt P41595). The class given is functional, cell-based.
The target of a further test is T1, Progesterone receptor (Homo sapiens, UniProt P06401).
T1 sequence (P06401 whole entry): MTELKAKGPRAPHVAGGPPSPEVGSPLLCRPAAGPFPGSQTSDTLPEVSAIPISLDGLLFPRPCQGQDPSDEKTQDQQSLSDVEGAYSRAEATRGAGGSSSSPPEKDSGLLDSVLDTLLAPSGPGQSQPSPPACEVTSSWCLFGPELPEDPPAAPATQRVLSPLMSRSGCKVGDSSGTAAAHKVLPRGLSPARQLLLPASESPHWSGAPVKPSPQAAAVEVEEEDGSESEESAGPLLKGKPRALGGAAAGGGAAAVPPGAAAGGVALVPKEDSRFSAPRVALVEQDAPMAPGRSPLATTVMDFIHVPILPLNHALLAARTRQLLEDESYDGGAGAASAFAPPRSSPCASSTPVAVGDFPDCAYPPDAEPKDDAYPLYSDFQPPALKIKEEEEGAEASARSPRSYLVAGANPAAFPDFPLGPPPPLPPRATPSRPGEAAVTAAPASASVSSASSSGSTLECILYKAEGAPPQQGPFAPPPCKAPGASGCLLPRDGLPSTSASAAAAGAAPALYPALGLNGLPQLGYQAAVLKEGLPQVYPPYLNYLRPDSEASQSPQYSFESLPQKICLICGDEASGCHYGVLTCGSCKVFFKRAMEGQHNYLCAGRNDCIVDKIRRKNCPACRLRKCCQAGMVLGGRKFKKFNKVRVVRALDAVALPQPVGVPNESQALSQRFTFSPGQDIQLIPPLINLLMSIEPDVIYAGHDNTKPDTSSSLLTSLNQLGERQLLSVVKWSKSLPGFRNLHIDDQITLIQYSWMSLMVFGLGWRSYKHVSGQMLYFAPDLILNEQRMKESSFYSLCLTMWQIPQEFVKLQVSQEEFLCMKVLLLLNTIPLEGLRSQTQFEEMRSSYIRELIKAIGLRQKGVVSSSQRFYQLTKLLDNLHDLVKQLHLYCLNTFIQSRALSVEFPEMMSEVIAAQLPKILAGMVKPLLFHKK

The target of a further test is D(1A) dopamine receptor (Homo sapiens, UniProt P21728). The class given is functional, cell-based.
D(1A) dopamine receptor, sequence (P21728 whole entry): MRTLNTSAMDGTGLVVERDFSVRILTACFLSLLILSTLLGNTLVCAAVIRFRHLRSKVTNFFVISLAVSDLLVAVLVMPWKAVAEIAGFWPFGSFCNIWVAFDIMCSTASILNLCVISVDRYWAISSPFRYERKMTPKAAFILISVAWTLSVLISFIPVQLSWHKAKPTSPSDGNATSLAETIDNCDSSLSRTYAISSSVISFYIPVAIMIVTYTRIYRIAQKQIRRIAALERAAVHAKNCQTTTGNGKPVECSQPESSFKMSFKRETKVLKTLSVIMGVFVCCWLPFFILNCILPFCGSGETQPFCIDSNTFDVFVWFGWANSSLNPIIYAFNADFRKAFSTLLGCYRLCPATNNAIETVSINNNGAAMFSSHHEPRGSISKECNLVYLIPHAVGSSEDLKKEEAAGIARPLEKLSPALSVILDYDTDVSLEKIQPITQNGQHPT
Another test deals with Vasopressin V1a receptor (Homo sapiens, UniProt P37288).
Vasopressin V1a receptor, sequence (P37288 whole entry): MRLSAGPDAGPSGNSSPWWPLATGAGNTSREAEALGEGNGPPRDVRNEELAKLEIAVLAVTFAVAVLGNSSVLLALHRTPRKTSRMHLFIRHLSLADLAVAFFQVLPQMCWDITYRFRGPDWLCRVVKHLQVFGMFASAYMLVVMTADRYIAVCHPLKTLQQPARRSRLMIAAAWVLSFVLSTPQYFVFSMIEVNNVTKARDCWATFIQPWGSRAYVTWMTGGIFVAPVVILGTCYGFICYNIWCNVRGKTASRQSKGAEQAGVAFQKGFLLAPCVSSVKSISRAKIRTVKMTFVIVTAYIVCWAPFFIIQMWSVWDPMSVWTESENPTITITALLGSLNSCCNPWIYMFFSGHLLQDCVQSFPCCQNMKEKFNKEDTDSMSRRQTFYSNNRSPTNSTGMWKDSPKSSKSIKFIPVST
Test [2] concerns the target T2, Equilibrative nucleoside transporter 1 (Homo sapiens, UniProt Q99808).
T2 sequence (Q99808 whole entry): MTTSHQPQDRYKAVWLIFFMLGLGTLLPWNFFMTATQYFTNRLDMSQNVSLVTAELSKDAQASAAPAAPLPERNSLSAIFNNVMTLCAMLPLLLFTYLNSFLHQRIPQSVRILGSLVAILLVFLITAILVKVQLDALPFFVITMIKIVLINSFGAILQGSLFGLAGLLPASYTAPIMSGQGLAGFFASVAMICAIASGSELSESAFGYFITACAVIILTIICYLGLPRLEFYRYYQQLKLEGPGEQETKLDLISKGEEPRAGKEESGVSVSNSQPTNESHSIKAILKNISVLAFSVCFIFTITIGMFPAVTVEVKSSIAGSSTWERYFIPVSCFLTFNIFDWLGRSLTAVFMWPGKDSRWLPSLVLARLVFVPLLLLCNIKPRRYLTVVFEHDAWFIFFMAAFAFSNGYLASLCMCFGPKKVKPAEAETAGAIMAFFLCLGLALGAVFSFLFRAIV

A further test deals with Melanocortin receptor 3 (Homo sapiens, UniProt P41968).
Melanocortin receptor 3, sequence (P41968 whole entry): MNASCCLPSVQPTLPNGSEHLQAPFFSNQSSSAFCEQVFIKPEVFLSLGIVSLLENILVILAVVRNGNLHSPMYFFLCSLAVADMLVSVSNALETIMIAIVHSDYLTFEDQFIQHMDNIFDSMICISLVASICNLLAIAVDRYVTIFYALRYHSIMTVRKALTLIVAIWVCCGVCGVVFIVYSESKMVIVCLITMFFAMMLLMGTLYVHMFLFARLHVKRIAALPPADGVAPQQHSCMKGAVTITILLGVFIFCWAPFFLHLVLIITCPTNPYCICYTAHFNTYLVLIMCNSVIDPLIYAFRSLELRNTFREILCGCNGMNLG
The target of test [3] is T3, Type-1 angiotensin II receptor (Homo sapiens, UniProt P30556).
T3 sequence (P30556 whole entry): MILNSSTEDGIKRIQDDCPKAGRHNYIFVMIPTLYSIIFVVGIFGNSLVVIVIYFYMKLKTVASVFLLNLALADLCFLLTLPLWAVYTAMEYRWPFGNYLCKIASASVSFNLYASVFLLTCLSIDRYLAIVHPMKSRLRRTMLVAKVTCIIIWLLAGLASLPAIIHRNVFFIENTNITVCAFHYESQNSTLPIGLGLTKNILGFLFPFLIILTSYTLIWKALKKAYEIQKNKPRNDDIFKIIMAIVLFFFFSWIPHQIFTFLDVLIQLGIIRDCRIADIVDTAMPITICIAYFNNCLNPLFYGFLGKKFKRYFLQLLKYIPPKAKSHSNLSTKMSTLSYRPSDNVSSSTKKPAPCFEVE

The target of test [4] is Sodium-dependent noradrenaline transporter (Homo sapiens, UniProt P23975).
Sodium-dependent noradrenaline transporter, sequence (P23975 whole entry): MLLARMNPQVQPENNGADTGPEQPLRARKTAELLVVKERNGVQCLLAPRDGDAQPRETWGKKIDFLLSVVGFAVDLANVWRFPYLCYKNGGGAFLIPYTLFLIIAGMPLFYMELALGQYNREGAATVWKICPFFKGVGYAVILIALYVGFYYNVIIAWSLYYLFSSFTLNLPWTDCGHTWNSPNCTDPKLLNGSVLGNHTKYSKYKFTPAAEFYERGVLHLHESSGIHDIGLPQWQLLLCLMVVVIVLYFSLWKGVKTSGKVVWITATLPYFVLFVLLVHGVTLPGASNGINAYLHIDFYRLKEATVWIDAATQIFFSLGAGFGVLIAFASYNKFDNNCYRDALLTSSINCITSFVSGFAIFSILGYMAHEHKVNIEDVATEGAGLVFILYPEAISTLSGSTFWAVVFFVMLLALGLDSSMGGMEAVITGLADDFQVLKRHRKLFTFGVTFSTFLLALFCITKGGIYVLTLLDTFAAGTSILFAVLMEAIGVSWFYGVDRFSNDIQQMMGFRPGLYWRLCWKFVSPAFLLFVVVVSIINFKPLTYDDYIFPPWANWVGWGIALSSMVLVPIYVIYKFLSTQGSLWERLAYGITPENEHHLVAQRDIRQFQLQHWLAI
For test [5], the target named is T4, 5-hydroxytryptamine receptor 2C (Homo sapiens, UniProt P28335).
T4 sequence (P28335 whole entry): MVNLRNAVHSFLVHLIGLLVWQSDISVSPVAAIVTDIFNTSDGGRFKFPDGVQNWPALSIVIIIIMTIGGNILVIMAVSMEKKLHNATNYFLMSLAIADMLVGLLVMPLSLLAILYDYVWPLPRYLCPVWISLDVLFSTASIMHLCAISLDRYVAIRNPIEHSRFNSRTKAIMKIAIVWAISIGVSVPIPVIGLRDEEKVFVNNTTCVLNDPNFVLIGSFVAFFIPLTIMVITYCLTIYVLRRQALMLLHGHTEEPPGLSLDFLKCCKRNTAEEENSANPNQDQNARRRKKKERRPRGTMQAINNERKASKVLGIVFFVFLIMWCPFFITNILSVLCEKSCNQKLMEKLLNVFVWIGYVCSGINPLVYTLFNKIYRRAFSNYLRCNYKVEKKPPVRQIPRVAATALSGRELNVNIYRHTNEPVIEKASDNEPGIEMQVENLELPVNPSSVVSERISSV

The target of test [6] is T5, Neuropeptide Y receptor type 1 (Homo sapiens, UniProt P25929).
T5 sequence (P25929 whole entry): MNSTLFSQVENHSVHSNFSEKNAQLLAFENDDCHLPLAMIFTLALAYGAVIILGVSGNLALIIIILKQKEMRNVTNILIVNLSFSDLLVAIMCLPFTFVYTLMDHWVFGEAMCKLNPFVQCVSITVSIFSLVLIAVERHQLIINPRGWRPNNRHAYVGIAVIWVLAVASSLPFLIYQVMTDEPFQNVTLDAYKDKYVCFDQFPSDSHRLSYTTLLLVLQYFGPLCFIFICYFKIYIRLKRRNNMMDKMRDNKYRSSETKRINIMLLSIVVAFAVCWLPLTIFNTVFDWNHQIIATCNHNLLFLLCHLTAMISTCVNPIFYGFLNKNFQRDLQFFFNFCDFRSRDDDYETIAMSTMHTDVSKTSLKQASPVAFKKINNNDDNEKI

Here are results for 20 compounds from ChEMBL document CHEMBL5291721, “A preclinical secondary pharmacology resource illuminates target-adverse drug reaction associations of marketed drugs” (Nat Commun, 2023).

The structures appear in SMILES notation.
Also: assay procedure not described here.

5-hydroxytryptamine receptor 2B, sequence (P41595 whole entry): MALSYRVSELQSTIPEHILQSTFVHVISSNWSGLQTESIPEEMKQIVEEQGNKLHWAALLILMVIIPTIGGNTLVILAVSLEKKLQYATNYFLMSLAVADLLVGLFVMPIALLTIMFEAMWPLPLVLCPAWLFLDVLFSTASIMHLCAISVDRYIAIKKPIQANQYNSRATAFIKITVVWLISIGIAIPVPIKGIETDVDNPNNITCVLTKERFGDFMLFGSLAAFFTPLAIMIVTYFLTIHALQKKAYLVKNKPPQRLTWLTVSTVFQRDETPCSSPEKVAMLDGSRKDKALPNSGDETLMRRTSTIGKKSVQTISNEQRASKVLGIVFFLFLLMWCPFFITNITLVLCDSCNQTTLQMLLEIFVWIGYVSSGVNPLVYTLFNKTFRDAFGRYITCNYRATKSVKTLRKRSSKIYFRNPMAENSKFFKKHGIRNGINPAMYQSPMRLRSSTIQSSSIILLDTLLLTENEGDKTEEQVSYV

Regarding `C#Cc1cccc(Nc2ncnc3cc(OCCOC)c(OCCOC)cc23)c1` [ERLOTINIB], the AC50 in [1] is > 30 µM; on Progesterone receptor, > 30 µM; on D(1A) dopamine receptor, > 30 µM; on Vasopressin V1a receptor, > 30 µM; in test [2] it was 29 µM; on Melanocortin receptor 3, > 30 µM. The AC50 in test [3], in [4] and in test [5] was > 30 µM each time.
With `CCC(=O)O[C@@H](O[P@](=O)(CCCCc1ccccc1)CC(=O)N1C[C@H](C2CCCCC2)C[C@H]1C(=O)O)C(C)C` [FOSINOPRIL], the half-maximal activity concentration (AC50) (in test [1]; on Progesterone receptor; at D(1A) dopamine receptor; in [5]) was > 30 µM throughout.
For the compound `CC(=O)/N=c1/sc(S(N)(=O)=O)nn1C` [METHAZOLAMIDE], the concentration at half-maximal activity (AC50) is > 10 µM in test [1]; > 30 µM at Progesterone receptor; > 10 µM at D(1A) dopamine receptor; > 10 µM in test [6]; > 10 µM on Vasopressin V1a receptor; > 10 µM in [2]. The AC50 is > 10 µM on Melanocortin receptor 3, > 10 µM in [3], > 10 µM in [4] and > 30 µM in [5].
`CC(=O)Oc1ccccc1C(=O)Nc1ncc([N+](=O)[O-])s1` [NITAZOXANIDE]: the AC50 in [1] is 17 µM; on Progesterone receptor, > 30 µM; at D(1A) dopamine receptor it was > 30 µM; in [6], 17 µM; on Vasopressin V1a receptor it was 17 µM; in [2], 1.9 µM. Further, the AC50 at Melanocortin receptor 3 was determined as 14 µM; in test [3], 5.6 µM; in [4], 5.1 µM; in test [5], 0.45 µM.
On to `CN(C)c1cc(CNCC(C)(C)C)c(O)c2c1C[C@H]1C[C@H]3[C@H](N(C)C)C(O)=C(C(N)=O)C(=O)[C@@]3(O)C(O)=C1C2=O` [OMADACYCLINE], for which the concentration at half-maximal activity (AC50) in [1] is > 30 µM; at Progesterone receptor it was > 30 µM; at D(1A) dopamine receptor, > 30 µM; in [6], > 30 µM; on Vasopressin V1a receptor it was > 30 µM; in test [2] it was > 10 µM. Also, the AC50 (at Melanocortin receptor 3; in [3]; in test [4]; in [5]) was > 30 µM each time.
Turning to `CCCCCCCCCCC[C@@H](C[C@@H]1OC(=O)[C@H]1CCCCCC)OC(=O)[C@H](CC(C)C)NC=O` [ORLISTAT], the concentration at half-maximal activity (AC50) on Progesterone receptor was > 30 µM.
For `O=C1[C@H]2CCCC[C@H]2C(=O)N1CCCCN1CCN(c2nsc3ccccc23)CC1` [PEROSPIRONE], the AC50 on Progesterone receptor is > 30 µM.
As to `CN(C)CCC(c1ccccc1)c1ccccn1` (stereo unspecified) [PHENIRAMINE], the AC50 on Progesterone receptor was > 30 µM.
For the compound `CNC[C@H](O)c1cccc(O)c1` [PHENYLEPHRINE], the AC50 in [1] is > 30 µM; at Progesterone receptor it was > 30 µM; at D(1A) dopamine receptor it was 3.13 µM; in test [6], > 30 µM; on Vasopressin V1a receptor, > 10 µM; in test [2], > 30 µM. Further, the AC50 on Melanocortin receptor 3 was > 30 µM; in [3], > 30 µM; in test [4] it was > 10 µM; in test [5], > 30 µM.
As to `CC(C)COc1ccc(CNC(=O)N(Cc2ccc(F)cc2)C2CCN(C)CC2)cc1` [PIMAVANSERIN], the AC50 on Progesterone receptor is > 30 µM.
On the same count and under the same terms, to `CC(C)[N+](C)(CCOC(=O)C1c2ccccc2Oc2ccccc21)C(C)C` [PROPANTHELINE] belongs > 30 µM.
`CNC(=O)c1cc(Oc2ccc(NC(=O)Nc3ccc(Cl)c(C(F)(F)F)c3)c(F)c2)ccn1` [REGORAFENIB]: the AC50 on Progesterone receptor was > 3 µM; at D(1A) dopamine receptor it was > 30 µM; at Melanocortin receptor 3 it was > 30 µM; in [4], 21.9 µM.
With `CN(C)C(=O)c1nc(CNC(=O)CN)n(-c2ccc(Cl)cc2C(=O)c2ccccc2Cl)n1` [RILMAZAFONE], the concentration at half-maximal activity (AC50) on Progesterone receptor was > 30 µM.
As to `NC(=O)NS(=O)(=O)c1ccc(N)cc1` [SULFACARBAMIDE], the AC50 at Progesterone receptor is > 30 µM.
Turning to `CCCCCCCCNC(C)C(O)c1ccc(SC(C)C)cc1` (stereo unspecified) [SULOCTIDIL], on Progesterone receptor, the AC50 was > 30 µM.
`CCCCNc1ccc(C(=O)OCCN(C)C)cc1` [TETRACAINE]: the AC50 is 33 µM in test [1]; > 30 µM at Progesterone receptor; > 10 µM at D(1A) dopamine receptor; > 30 µM in test [6]; > 10 µM at Vasopressin V1a receptor; > 30 µM in test [2]. Moreover, the AC50 on Melanocortin receptor 3 is > 30 µM; in test [3] it was > 30 µM; in [4] it was > 10 µM; in test [5] it was > 10 µM.
On to `Cn1c(=O)c2[nH]cnc2n(C)c1=O` [THEOPHYLLINE], for which the AC50 in [1] was > 10 µM; on Progesterone receptor, > 30 µM; at D(1A) dopamine receptor, > 10 µM; in [6], > 30 µM; at Vasopressin V1a receptor it was > 30 µM; in test [2], > 30 µM. The AC50 (at Melanocortin receptor 3; in test [3]; in test [4]; in [5]) was > 30 µM throughout.
Take `CN1CCN(CCCN2c3ccccc3Sc3ccc(S(=O)(=O)N(C)C)cc32)CC1` [THIOPROPERAZINE]: the AC50 in test [1] was > 30 µM; on Progesterone receptor, > 30 µM; on D(1A) dopamine receptor, > 30 µM; in [5], 6.14 µM.
Take `NCCc1ccc(O)cc1` [TYRAMINE]: the AC50 on Progesterone receptor is > 30 µM.
Consider `CCCCCCCCCCCCCCCC(=O)OC/C=C(C)/C=C/C=C(C)/C=C/C1=C(C)CCCC1(C)C` [VITAMIN A PALMITATE], for which the AC50 on Progesterone receptor was > 30 µM.

What is called AC50 is the concentration at which the activity in the assay is half-maximal.
